The record followed here is patent US9969755B2, “Photodynamic therapy photosensitizers” (The Royal Institution for the Advancement of …, priority 2016, dated 2018).

Data set [1] in a line: Activation of compounds 7 and 8 with dicumyl peroxide (cumyloxyl radicals). The conditions noted are these: 9 with respect to 7; reaction with cumyloxyl radicals/ROS, 1 equivalent sacrificial PMHC. It counts as physicochemical. The method, then:
Compounds 7 and 8 were oxidized/activated in air equilibrated acetonitrile solution upon photolysis of a 100 μM dicumyl peroxide. Irradiation was performed within a fluorimeter to generate ROS upon exciting with ultraviolet light at 263 nm (2.4 mW/cm^2). The fluorescence intensity at the emission maxima of the probes was monitored over time.
Activation of the dormant photosensitizer 7 or 8 (deactivation of PeT) following their reaction with ROS was subsequently tested in the presence of alkoxyl radicals. These ROS were generated at a constant rate upon photolysis at 263 nm of an air equilibrated 100 μM dicumyl peroxide solution in acetonitrile. We followed over time the increase in fluorescence intensity (drop in PeT) to monitor the extent of activation, see FIG. 16. Activation was complete once the intensity reached a plateau.^28,45 At this point, the trap segment in 7 and 8 reacted to completion with alkoxyl radicals to generate 9 and 10, respectively. […] Deactivation of PeT in the singlet excited state in turn manifested in the ca. 7-fold and 2-fold emission enhancements recorded for 9 vs 7, and 10 vs 8, respectively (FIG. 16).

Data set [2] can be described thus: Autocatalytic activation of compound 7 (monitoring fluorescence). The format is physicochemical. The method, then: The increase in the fluorescence emission due to autocatalytic activation of compound 7 was followed by continuous irradiation at 532 nm and 1.6 mW/cm^2 in air equilibrated acetonitrile using a PTI QuantaMaster spectrofluorimeter. The emission at 557 nm was measured as a function of the irradiation time. Samples were prepared as described above (see Autocatalytic Activation of Compound 7 (Monitoring ^1O2 Phosphorescence)).

The test system of the next data set is E. coli ATCC 25922. Put plainly: Photodynamic minimal inhibitory concentration (PD-MIC). It counts as cell-based. The note with it: Escherichia coli. Here is the method:
The microorganism used for this study is E. coli ATCC 25922. Stock cultures were preserved at −70° C. using glycerol 10% (v/v) as the cryoprotectant, and the strain was grown in Luria Bertania broth (LB). Bacterial culture was prepared inoculating a single colony from a pure culture. After overnight incubation at 37° C. for 18 h, the culture reached a density of approximately 1×10^9 CFU/mL and it was diluted to 10^6 CFU/mL.
We carried out PDI in vitro studies with E. coli. Cells (10^6 CFU/mL) were incubated with 2-fold diluted solutions of compounds 7 and 9 (activated form of 7) in buffer PBS and LB at a proportion of 70:30% (v/v), to obtain concentrations between 40-0.078 μM. Stock solutions of BODIPY 7 and 9 (400 μM) were prepared in acetonitrile. […] PD-MIC was 40 μM for compounds 7 and 9 in dark conditions. Under light irradiation the PD-MIC was 40 μM and 10 μM for 7 and 9 respectively.

≈ marks a conversion by molar mass, not a printed value.

Take `CC1=C(Br)C(C)=[N+]2C1=C(CC1(C)CCc3c(C)c(O)c(C)c(C)c3O1)c1c(C)c(Br)c(C)n1[B-]2(F)F` (stereo not drawn) [Compound 7, 8-((6-Hydroxy-2,5,7,8-tetramethylchroman-2-yl)-methyl)-2,6-dibromo-1,3,5,7-tetramethyl]: the “enhancement in φΔ^D (^1O2 production) on activation” value in data set [1] is reported as ~40 fold. In data set [2], the “fraction of 7 pre-oxidized during sample preparation” value was “less than 5%”. Further, in data set [2] (0.12 μM sacrificial PMHC, continuous irradiation at 532 nm), the Fluorescence intensity enhancements is on record as ~30 fold. In data set [2] (fit to equation 9, different conditions), the “k, apparent second order rate constant for autocatalytic activation” value was ~133 M⁻¹ s⁻¹. Further, the minimum inhibitory concentration (MIC) is 40 µM (≈ 25 µg/mL) against E. coli ATCC 25922 (ATCC25922, light or radiation study, under light irradiation) and 40 µM (≈ 25 µg/mL) with E. coli ATCC 25922 (ATCC25922, dark conditions).
